One data set has as its system Plasma. Nature of the data set: Drug level in patient plasma. The class given is ADME, cell-free. The settings on record: human.
A short description of data set [1]: Plasma concentration in fatty-liver cirrhosis patient treated at 2 mg, po twice a day for 30 days measured after 11 days of last dose. The class given is ADME, organism-based. As to conditions: human.
The species named for data set [2] is Homo sapiens. Kind of data set: Drug elimination in healthy human assessed as cytochrome-dependent hepatic metabolism-mediated kidney elimination. The class given is ADME, organism-based. As to conditions: in vivo.
For data set [3], the species on record is Homo sapiens. Kind of data set: Drug elimination in healthy human assessed as cytochrome-dependent hepatic metabolism-mediated biliary elimination. The class given is ADME, organism-based. The settings on record: in vivo.
In data set [4] the test system is Homo sapiens. Nature of the data set: Volume of distribution in fatty-liver cirrhosis patient treated at 2 mg, po twice a day for 30 days measured after 2 days of last dose. The class given is ADME, organism-based. The settings on record: in vivo, 48 h.
The nature of data set [5]: Half life in healthy human at 2 mg, po twice a day for 30 days measured after 2 days of last dose. The class given is ADME, organism-based. The settings on record: in vivo.
The nature of data set [6]: Half life in fatty-liver cirrhosis patient treated at 2 mg, po twice a day for 30 days measured after 2 days of last dose. The class given is ADME, organism-based. The settings on record: human, in vivo.
Data set [7] in a line: Plasma concentration in fatty-liver cirrhosis patient plasma treated at 2 mg, po twice a day for 30 days measured after 15 hrs of last dose. The class given is ADME, organism-based. The settings on record: human.
The nature of data set [8]: Plasma concentration in fatty-liver cirrhosis patient plasma treated at 2 mg, po twice a day for 30 days measured after 2 days of last dose. The class given is ADME, organism-based. As to conditions: human.
The test system of data set [9] is Homo sapiens. Kind of data set: Volume of distribution in healthy human at 2 mg, po twice a day for 30 days measured after 2 days of last dose. The class given is ADME, organism-based. The settings on record: in vivo, 48 h.

Turning to `C[C@@H](c1ncncc1F)[C@](O)(Cn1cncn1)c1ccc(F)cc1F` [VORICONAZOLE], the Drug uptake in the data set on Plasma was > 2.05 µg/mL. For the same molecule, the concentration at 264 h in data set [1] was determined as 660 ng/mL. The Activity in the data set filed under Homo sapiens [2] worked out at 80%; in the data set listed under Homo sapiens [3] it was 20%. Moreover, the values for the Vd with Homo sapiens [4] and with Homo sapiens [9] were 0.13 L/kg and 2.04 L/kg, respectively. For the same molecule, the half-life (as a rule, how long it takes for the measured level to halve) in data set [5] is 282 min; in [6], 2.21 days. The molecule also came in with a concentration at 15 h in [7] of 13900 ng/mL. Moreover, in [8], the concentration at 48 h is 10000 ng/mL.

For the origin of these results see ChEMBL document CHEMBL1154404 (Antimicrob Agents Chemother, 2007).
